Assay results: PubChem BioAssay AID562 (University of Pittsburgh Molecular Library Screening Center, 2006)
The source made the active and inactive calls. No rule for the calls is given here.

target: Dual specificity protein phosphatase 1 (Homo sapiens) (UniProt P28562); experiment: DUSP1 inhibition in catalase presence – biochemical, catalase added, active/probe assessment, dose response (AID 562); settings: recombinant MKP-1 phosphatase, fluorescence, with catalase
Sequence (P28562 whole entry, looked up): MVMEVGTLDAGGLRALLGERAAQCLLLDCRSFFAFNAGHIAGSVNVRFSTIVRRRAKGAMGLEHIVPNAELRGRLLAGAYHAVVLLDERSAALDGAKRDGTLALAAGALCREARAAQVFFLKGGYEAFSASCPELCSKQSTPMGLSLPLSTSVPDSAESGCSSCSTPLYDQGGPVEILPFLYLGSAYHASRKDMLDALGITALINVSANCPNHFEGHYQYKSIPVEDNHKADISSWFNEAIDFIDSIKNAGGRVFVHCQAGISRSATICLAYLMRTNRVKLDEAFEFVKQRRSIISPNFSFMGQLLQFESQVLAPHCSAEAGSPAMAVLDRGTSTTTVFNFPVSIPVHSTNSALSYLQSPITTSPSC

| SMILES | IC50 |
| --- | --- |
| COC(=O)c1ccccc1NC(=O)CN1C(=O)C2CCCN2c2ncc(Cl)cc21 (stereo unspecified) | > 50 µM (inactive) |
| CC(C)Cn1c(N)c(C(=O)COC(=O)c2cc(-c3ccco3)nc3ccccc23)c(=O)n(C)c1=O | 25.5 µM |
| O=C(c1cccs1)c1no[n+]([O-])c1C(=O)c1cccs1 | 6.96 µM |
| CCn1nc(-c2ccccc2)nc2c(=O)n(C)c(=O)nc1-2 | > 50 µM (inactive) |
| O=C1c2ccccc2-c2onc3ccc(NCCCn4ccnc4)c1c23 | 35.2 µM |
| Cc1cc(NC(=O)c2ccc(S(=O)(=O)N3CCCC3)cc2)nc2c1c(=O)oc1ccccc12 | 26.1 µM |
| CC1=C(/C=C/C(C)=C/C=C/C(C)=C/C(=O)O)C(C)(C)CCC1 | 48.6 µM |
| N#Cc1c(N2CCCC2)nc(N)c2c(N)nc(N3CCCC3)cc12 | > 50 µM (inactive) |
| CCn1c(SCC(=O)Nc2ccc3c(c2)c2ccccc2n3CC)nnc1-c1ccco1 | 21.1 µM |
| COc1cc(/C=C(/C#N)c2ccc(F)cc2)ccc1OCc1ccc(C(=O)O)o1 | > 50 µM (inactive) |
| O=C1C=Cc2ccccc2C1=O | 22.5 µM |
| Cc1ccc(-c2csc(NC(=O)c3ccno3)n2)cc1 | 49.8 µM |
| CCOc1ccc2noc3c2c1C(=O)c1ccccc1-3 | 30.2 µM |
| Cc1cccc(N2CCN(C(=O)Cc3c(C(=O)O)[nH]c4ccc(Cl)cc34)CC2)c1C | 46.8 µM |
| CCCCNC(=O)c1c(N)n(CCCOC)c2nc3ccccc3nc12 | > 50 µM (inactive) |
| [O-]/[N+](=C/c1ccc(F)cc1)c1ccccc1 | > 50 µM (inactive) |
| COc1ccc(Br)cc1/C=c1\sc2nc(-c3ccco3)nn2c1=O | 17.2 µM |
| CC(C)(C)N1C(=O)Cc2c1nc(N)c1c(N)nc(N3CCCCC3CO)c(C#N)c21 (stereo unspecified) | > 50 µM (inactive) |
| [O-]/[N+](=C\c1ccncc1)c1ccccc1 | 46.6 µM |

| SMILES | IC50 |
| --- | --- |
| CCc1ccc(NC(=O)CSc2nc3ccccc3c(=O)n2CCN2CCOCC2)cc1 | > 50 µM (inactive) |
| Cn1ncnc2c(=O)n(C)c(=O)nc1-2 | > 50 µM (inactive) |
| Nc1nc2c(s1)CCc1c-2cnn1-c1ccccc1 | > 50 µM (inactive) |
| CC(=O)[C@@H]1[C@@H]2C(=O)N(c3ccc(F)c(Cl)c3)C(=O)[C@@H]2C2c3ccccc3C=CN21 (stereo partly specified) | > 50 µM (inactive) |
| CCOc1ccc(-c2cc3nc(C4CCN(C(=O)OC(C)(C)C)CC4)c(C(=O)O)cn3n2)cc1 | 27.7 µM |
| COc1ccc2noc3c2c1C(=O)c1ccccc1-3 | 14.3 µM |
| Cc1ccc(C)n1-c1cccc(C(=O)O)c1 | 16.9 µM |
| CC(C)Sc1nc2sc3c(c2c2nnc(SCC(=O)NCc4ccco4)n12)CCCC3 | 22.7 µM |
| CCOC(=O)c1ccc2c(c1)C1C=CCC1C(C(=O)O)N2 (stereo unspecified) | 32.7 µM |
| COCCCn1c(N)c(C(=O)NCCC(C)C)c2nc3ccccc3nc21 | > 50 µM (inactive) |
| FC(F)(F)c1ccc(N2CCOCC2)c(Nc2nc3ccccc3n3cnnc23)c1 | > 50 µM (inactive) |
| O=C(OC1CCCCC1)c1ccc2c(c1)C1C=CCC1C(C(=O)O)N2 (stereo unspecified) | 17.5 µM |
| CCCCn1c(NC(=O)c2ccccc2)c(C#N)c2nc3ccccc3nc21 | 32.4 µM |
| COc1ccc(Cn2c(C)nc3c(c2=O)c2nc4ccccc4nc2n3Cc2ccco2)cc1 | 22 µM |
| O=C1C=C(NCc2ccc(Cl)c(Cl)c2)CC1 | > 50 µM (inactive) |
| Cc1cc(C)n2c(SCC(=O)N3CCN(S(=O)(=O)c4ccc(Cl)cc4)CC3)nnc2n1 | 49.9 µM |
| N#Cc1c(NC(=O)c2ccc(Br)o2)n(-c2ccccc2)c2nc3ccccc3nc12 | > 50 µM (inactive) |
| Cc1cccc(NC(=O)c2cc(NC(=O)C3CCCCC3C(=O)O)ccc2N2CCCCC2)c1 (stereo unspecified) | > 50 µM (inactive) |
| O=C1Nc2ccccc2SC(c2ccccc2)C1O (stereo unspecified) | 35.5 µM |

| SMILES | IC50 |
| --- | --- |
| CCCSc1nnc(NC(=O)c2sc3nc(-c4cccs4)ccc3c2N)s1 | 25.7 µM |
| CCn1nc(-c2cccs2)nc2c(=O)n(C)c(=O)nc1-2 | > 50 µM (inactive) |
| [O-]/[N+](=C\c1ccc(OC(F)F)cc1)c1ccccc1 | > 50 µM (inactive) |
| CCCCCNC(=O)c1ccc2c(=O)[nH]c3c(C(=O)NCC4CCCO4)sc(=S)n3c2c1 (stereo unspecified) | 36.7 µM |
| Cc1c(N=c2c(=O)c3ccccc3c2=O)c(=O)n(-c2ccccc2)n1C | > 50 µM (inactive) |
| N#Cc1c(N)sc(=S)c2c1CCN(Cc1ccccc1)C2 | > 50 µM (inactive) |
| CCCCCC#CCC#CCC#CCC#CCCCC(=O)O | 13.1 µM |
| O=C(Nc1ccccc1)c1ccc2nc(-c3ccco3)c(-c3ccco3)nc2c1 | 32 µM |
| Cc1nc2c(C(=O)NCCC3=CCCCC3)c[nH]n2c(=O)c1Cl | 49.9 µM |
| CCCCn1c(SCC(=O)c2ccc(OC)cc2OC)nc2cc(S(N)(=O)=O)ccc21 | 42.1 µM |
| O=C(Nc1ccc2nc(-c3ccco3)c(-c3ccco3)nc2c1)N1CCCCCC1 | 24.1 µM |
| Cc1ccc(/C=C/C2=Cc3c(sc(NC(=O)CSc4n[nH]c(N)n4)c3C#N)C(C)(C)C2)o1 | 19.8 µM |
| Cc1nc2cc(-c3cccc(F)c3)nn2c(C)c1CCC(=O)N1CCC2(CC1)OCCO2 | > 50 µM (inactive) |
| O=C(NC1(O)C(=O)c2ccccc2C1=O)c1ccccc1 | > 50 µM (inactive) |
| COc1ccc(-c2cc3nc(C4CCN(C(=O)OC(C)(C)C)CC4)c(C(=O)O)cn3n2)cc1 | 36.3 µM |
| CCOc1cc(/C=C(/C#N)c2ccc(F)cc2)ccc1OCc1ccc(C(=O)O)o1 | 41.8 µM |
| COc1ccc(-n2c(NC(=O)c3ccco3)c(C#N)c3nc4ccccc4nc32)cc1 | > 50 µM (inactive) |
| Nc1c(N2CCCC2)cc(Cl)c2nonc12 | > 50 µM (inactive) |
